Results reported in ChEMBL document CHEMBL1201862, “PubChem BioAssay data set” (2004).
Active and inactive are the calls of the source.

Tests used:
[1] = target: T1, Lysine-specific demethylase 4C (Homo sapiens, UniProt Q9H3R0); assay: GASC-1 (JMJD2C) histone demethylase inhibitors, dose response, biochemical, DELFIA europium, cherry-picked samples (AID 488835); type: functional
T1 sequence (Q9H3R0 whole entry): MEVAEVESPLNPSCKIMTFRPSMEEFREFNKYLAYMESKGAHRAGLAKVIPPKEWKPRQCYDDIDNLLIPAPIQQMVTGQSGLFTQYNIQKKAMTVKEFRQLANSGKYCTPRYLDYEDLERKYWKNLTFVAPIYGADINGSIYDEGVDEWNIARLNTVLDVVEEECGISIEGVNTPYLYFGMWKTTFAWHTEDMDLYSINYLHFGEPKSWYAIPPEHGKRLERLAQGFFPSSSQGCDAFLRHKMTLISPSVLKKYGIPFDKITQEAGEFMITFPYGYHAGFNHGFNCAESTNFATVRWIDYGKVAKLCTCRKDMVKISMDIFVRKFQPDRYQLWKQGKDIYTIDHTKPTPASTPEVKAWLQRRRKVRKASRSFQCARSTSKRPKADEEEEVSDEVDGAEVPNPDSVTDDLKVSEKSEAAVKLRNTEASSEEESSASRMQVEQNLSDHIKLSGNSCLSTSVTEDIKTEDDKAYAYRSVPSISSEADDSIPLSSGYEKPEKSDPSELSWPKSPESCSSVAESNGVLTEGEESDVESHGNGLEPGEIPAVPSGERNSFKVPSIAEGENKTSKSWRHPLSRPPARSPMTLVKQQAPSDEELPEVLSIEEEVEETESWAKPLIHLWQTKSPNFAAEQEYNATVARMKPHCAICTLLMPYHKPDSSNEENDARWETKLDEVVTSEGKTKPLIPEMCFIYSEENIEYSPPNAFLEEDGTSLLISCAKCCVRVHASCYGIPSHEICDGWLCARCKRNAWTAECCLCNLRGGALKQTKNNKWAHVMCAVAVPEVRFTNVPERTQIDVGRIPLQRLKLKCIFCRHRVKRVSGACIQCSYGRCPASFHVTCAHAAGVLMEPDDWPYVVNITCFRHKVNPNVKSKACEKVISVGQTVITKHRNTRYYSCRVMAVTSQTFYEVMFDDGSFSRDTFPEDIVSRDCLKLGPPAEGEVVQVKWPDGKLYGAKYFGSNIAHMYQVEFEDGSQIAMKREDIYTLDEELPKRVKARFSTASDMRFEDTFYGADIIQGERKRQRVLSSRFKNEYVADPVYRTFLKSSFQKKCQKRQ

[2] = target: T2, Microphthalmia-associated transcription factor (Homo sapiens, UniProt O75030); assay: TRPM1 promoter luciferase signal decrease, dose response, MITF inhibitor project, cell-based, SK-MEL-5, cherry-picked, set 3 (AID 493073); type: functional
T2 sequence (O75030 whole entry): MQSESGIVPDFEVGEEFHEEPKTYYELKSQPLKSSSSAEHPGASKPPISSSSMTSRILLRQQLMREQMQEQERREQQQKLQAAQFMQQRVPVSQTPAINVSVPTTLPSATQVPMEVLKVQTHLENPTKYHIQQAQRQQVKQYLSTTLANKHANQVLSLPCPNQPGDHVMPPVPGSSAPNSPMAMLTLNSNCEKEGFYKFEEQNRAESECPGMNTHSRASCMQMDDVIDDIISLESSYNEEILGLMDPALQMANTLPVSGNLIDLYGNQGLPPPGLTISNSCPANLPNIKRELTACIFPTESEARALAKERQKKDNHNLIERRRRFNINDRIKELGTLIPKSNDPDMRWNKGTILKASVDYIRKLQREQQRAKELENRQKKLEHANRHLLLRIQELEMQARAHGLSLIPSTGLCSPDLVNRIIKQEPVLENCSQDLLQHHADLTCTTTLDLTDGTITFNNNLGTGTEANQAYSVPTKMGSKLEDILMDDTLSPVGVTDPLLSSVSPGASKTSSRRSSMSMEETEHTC

[3] = inhibitors of intracellular T. cruzi replication, confirmation, NIH3T3 host cells, beta-gal luminescence (AID 2044); type: functional, cell-based;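 further: intracellular parasites grown in NIH/3T3 mouse fibroblasts as host cells; luminescent beta-galactosidase reporter signal from transgenic T. cruzi replicating inside host cells; inhibitors lower the luminescence signal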
[4] = cytotoxicity toward NIH3T3 fibroblasts, dose response, counter-screen, cell-based, ATP luminescence, mouse fibroblasts (AID 2010); type: functional;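 further: cells exposed to compound for about 90 hours before reading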
Protein RecA = target: T3, Protein RecA (Mycobacterium tuberculosis, UniProt P9WHJ3); assay: Fluorescence Cell-Free Homogeneous Dose Retest to Identify Inhibitors of RecA-Intein Splicing Activity. [Related pubchem assays (depositor defined):AID2097, AID2223, AID489010, AID492950]; type: functional
T3 sequence (P9WHJ3 whole entry): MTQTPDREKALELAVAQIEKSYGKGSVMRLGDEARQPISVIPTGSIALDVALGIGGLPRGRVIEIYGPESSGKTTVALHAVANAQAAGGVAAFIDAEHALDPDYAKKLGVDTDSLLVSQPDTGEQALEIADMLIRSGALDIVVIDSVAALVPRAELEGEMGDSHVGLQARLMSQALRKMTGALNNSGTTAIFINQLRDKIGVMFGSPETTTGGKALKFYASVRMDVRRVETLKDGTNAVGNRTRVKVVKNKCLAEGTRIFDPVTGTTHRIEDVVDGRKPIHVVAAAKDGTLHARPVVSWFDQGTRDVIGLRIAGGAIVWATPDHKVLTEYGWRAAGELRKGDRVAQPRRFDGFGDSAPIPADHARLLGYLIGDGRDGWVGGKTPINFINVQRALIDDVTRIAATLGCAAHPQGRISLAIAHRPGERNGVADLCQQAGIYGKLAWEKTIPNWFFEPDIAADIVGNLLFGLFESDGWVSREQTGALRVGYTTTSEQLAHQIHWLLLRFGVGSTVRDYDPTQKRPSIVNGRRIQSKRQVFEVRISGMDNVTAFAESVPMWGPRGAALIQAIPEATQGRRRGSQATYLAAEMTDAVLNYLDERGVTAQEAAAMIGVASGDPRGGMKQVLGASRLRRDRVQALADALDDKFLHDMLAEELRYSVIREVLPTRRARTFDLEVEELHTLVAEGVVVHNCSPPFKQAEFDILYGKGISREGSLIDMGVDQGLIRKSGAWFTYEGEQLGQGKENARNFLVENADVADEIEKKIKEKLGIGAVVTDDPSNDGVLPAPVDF

Genome polyprotein = Genome polyprotein (dengue virus type 2, UniProt P29990); assay: Dengue-2 NS5 methyltransferase inhibitors, primary screen, biochemical, confirmation dose response (AID 588689); type: functional
Genome polyprotein, sequence (P29990 2492-3391 limits assumed): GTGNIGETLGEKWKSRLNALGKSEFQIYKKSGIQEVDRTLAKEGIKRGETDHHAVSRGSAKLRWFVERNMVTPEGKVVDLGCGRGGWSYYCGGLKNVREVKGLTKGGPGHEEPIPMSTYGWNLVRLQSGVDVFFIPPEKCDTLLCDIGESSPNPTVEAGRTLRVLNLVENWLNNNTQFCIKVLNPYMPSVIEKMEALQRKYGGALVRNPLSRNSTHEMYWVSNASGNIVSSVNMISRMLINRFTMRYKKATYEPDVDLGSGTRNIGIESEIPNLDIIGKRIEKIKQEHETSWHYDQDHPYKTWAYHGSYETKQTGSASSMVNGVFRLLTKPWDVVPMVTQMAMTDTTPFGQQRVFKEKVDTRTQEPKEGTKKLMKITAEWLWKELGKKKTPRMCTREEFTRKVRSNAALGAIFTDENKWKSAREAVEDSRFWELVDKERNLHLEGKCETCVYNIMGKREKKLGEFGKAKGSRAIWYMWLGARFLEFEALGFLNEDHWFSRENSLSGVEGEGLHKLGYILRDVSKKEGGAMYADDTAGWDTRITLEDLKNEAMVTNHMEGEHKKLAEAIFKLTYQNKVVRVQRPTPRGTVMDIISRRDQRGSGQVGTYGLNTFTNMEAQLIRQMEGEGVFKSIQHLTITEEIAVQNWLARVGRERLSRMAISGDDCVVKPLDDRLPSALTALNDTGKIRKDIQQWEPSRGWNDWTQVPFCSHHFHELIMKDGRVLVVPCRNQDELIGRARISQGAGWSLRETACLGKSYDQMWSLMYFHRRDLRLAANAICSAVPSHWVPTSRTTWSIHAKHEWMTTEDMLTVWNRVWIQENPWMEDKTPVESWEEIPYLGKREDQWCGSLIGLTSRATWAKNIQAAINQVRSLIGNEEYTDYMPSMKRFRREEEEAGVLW

[5] = target: T4, Replicative DNA helicase DnaB (Mycobacterium tuberculosis, UniProt P9WMR3); assay: DnaB intein splicing inhibitors, dose response, biochemical, cell-free fluorescence (AID 449749); type: functional
T4 sequence (P9WMR3 whole entry): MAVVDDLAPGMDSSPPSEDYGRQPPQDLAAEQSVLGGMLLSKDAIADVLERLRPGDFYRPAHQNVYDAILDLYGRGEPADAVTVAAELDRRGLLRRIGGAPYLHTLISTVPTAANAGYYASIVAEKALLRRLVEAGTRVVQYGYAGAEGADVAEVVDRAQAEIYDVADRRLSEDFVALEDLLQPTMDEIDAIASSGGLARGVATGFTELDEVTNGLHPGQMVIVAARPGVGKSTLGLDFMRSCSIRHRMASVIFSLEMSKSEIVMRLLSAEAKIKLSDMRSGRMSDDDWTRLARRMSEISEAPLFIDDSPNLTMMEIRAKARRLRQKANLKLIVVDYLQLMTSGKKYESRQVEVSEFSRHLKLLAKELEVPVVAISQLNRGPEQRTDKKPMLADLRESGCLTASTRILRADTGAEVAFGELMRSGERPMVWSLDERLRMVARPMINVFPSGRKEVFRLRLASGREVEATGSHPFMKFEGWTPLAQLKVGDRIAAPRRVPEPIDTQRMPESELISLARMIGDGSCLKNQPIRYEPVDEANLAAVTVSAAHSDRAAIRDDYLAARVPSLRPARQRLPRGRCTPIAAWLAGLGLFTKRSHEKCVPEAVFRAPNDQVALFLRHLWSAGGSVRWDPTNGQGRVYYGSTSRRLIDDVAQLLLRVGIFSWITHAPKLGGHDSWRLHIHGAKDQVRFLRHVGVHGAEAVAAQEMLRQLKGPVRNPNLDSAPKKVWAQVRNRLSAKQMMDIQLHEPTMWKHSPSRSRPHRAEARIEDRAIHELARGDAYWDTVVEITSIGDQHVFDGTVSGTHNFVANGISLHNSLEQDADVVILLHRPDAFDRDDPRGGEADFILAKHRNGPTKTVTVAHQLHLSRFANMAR

[6] = target: E3 ubiquitin-protein ligase XIAP (Homo sapiens, UniProt P98170); assay: Counter Screen using XIAP-Bir3 for Chemical Antagonists of Bir1/2 domains of IAP-family anti-apoptotic proteins. [Related pubchem assays (depositor defined):AID1018, AID1449, AID1514, AID1638, AID1749, AID1750, AID488957, AID488963]
E3 ubiquitin-protein ligase XIAP, sequence (P98170 whole entry): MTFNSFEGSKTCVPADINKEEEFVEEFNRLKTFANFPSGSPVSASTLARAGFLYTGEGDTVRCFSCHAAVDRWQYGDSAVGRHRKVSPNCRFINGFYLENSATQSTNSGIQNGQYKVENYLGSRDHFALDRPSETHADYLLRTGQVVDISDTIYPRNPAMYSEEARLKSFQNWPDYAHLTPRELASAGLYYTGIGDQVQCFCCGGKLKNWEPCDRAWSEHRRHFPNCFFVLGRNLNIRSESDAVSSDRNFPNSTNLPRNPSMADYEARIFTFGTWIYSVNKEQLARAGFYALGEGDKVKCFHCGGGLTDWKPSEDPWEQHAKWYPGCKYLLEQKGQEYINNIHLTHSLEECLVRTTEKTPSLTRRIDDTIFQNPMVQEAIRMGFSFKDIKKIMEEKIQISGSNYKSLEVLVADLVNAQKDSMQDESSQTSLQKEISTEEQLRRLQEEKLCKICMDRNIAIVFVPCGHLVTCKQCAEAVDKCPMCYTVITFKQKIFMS

Estrogen receptor = target: T5, Estrogen receptor (Homo sapiens, UniProt P03372);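 further: potency for inhibiting coactivator peptide recruitment to the receptor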
T5 sequence (P03372 whole entry): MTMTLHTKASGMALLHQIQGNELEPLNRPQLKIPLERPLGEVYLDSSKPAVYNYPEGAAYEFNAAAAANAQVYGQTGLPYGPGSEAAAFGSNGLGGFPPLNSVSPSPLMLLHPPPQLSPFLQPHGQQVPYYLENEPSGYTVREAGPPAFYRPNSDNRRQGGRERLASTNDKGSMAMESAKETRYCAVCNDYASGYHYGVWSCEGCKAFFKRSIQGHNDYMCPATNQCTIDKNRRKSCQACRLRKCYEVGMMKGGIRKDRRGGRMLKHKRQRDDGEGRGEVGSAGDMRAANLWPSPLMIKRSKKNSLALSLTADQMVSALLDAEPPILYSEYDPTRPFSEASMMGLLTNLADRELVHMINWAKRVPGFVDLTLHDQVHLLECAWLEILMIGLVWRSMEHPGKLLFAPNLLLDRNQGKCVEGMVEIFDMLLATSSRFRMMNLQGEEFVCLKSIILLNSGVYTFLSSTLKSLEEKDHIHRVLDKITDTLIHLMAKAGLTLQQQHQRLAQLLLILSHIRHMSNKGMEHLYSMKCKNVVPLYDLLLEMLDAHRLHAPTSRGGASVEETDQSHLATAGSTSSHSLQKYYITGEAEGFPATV

[7] = target: Luciferin 4-monooxygenase (Photinus pyralis, UniProt P08659); assay: Counter Screen for Luciferase-based Assay Positives. [Related pubchem assays: 620, 618, 411 ]
Luciferin 4-monooxygenase, sequence (P08659 whole entry): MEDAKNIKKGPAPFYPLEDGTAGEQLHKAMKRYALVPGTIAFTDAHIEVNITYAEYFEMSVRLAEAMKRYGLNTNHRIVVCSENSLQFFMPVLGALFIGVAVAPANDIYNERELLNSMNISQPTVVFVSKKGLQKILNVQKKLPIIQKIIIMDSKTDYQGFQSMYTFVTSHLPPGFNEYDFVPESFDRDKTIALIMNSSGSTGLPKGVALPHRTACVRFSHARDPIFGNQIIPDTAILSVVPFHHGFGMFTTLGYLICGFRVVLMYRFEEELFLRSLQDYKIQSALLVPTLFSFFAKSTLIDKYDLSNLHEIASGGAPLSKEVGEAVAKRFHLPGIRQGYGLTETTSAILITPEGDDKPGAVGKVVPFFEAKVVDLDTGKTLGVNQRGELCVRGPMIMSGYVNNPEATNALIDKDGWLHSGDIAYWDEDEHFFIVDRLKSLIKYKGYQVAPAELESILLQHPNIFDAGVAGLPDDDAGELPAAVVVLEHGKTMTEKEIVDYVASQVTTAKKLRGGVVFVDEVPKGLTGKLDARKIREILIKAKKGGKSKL

Paired box protein Pax-8 = Paired box protein Pax-8 (Homo sapiens, UniProt Q06710); assay: inhibitors of PAX8-driven TPO luciferase reporter, dose response, RMG-I cells, cherry-pick (AID 687027); type: functional, cell-based;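 further: luciferase reporter driven by Pax8 target thyroperoxidase promoter measured by SteadyGlo luminescence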
Paired box protein Pax-8, sequence (Q06710 whole entry): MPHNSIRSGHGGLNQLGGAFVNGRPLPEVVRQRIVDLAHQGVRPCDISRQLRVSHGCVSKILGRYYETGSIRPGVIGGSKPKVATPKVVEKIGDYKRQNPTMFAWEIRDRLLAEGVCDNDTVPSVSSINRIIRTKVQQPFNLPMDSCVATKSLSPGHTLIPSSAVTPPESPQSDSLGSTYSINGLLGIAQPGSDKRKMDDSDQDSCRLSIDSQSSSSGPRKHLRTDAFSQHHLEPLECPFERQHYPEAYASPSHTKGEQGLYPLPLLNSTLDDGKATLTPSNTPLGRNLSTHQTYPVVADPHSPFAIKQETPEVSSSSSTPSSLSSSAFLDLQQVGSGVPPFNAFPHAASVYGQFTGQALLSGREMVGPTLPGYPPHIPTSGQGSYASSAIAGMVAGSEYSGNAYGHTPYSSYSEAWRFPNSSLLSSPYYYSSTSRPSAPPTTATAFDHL

HT-1080 = assay: cytotoxicity in HT1080 fibrosarcoma cells, cell-based, fluorescence readout (AID 620); type: functional; conditions: Homo sapiens
[8] = non-specific cell cytotoxicity, dose response, cytotoxicity control for PAX8 inhibitor project, plate reader, dry powder samples (AID 743021); type: functional, cell-based
[9] = target: Intestinal-type alkaline phosphatase (Homo sapiens, UniProt P09923); assay: inhibition of human intestinal alkaline phosphatase – biochemical, dose response (AID 488876); type: functional
Intestinal-type alkaline phosphatase (Homo sapiens, UniProt P09923), sequence (P09923 whole entry): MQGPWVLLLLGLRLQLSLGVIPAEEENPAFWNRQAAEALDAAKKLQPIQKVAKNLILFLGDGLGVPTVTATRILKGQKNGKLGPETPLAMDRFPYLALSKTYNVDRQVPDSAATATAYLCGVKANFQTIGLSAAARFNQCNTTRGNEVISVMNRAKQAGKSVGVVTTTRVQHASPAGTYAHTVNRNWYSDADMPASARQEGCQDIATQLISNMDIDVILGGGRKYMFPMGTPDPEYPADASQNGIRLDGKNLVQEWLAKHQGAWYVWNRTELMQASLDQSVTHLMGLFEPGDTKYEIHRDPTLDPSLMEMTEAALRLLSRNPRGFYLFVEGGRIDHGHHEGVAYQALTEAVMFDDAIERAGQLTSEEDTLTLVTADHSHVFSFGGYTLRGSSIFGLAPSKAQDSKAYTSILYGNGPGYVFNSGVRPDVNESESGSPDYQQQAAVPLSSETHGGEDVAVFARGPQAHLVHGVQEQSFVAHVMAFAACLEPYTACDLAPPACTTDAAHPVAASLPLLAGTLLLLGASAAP

[10] = target: Intestinal-type alkaline phosphatase (Mus musculus, UniProt P24822); assay: PubChem AID 488785; type: functional
Intestinal-type alkaline phosphatase (Mus musculus, UniProt P24822), sequence (P24822 whole entry): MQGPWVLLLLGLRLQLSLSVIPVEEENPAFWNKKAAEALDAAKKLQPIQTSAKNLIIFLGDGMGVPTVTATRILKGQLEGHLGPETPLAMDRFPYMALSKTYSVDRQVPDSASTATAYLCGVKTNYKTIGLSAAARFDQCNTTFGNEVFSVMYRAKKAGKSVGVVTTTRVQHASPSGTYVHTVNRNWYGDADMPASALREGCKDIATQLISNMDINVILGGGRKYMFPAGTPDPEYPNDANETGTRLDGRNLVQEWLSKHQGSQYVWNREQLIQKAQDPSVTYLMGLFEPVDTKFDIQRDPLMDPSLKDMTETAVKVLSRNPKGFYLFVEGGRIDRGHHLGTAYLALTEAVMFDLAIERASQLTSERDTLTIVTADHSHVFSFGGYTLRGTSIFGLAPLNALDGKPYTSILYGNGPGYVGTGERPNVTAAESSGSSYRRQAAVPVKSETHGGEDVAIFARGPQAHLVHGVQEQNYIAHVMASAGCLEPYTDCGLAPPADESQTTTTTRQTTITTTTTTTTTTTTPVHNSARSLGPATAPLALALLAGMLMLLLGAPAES

[11] = target: T6, Alkaline phosphatase, tissue-nonspecific isozyme (Homo sapiens, UniProt P05186); assay: TNAP enzyme inhibition by screening hits, dose response, selectivity assay for mouse IAP inhibitor project, biochemical, human TNAP, uHTS hits (AID 488906); type: functional
T6 sequence (P05186 whole entry): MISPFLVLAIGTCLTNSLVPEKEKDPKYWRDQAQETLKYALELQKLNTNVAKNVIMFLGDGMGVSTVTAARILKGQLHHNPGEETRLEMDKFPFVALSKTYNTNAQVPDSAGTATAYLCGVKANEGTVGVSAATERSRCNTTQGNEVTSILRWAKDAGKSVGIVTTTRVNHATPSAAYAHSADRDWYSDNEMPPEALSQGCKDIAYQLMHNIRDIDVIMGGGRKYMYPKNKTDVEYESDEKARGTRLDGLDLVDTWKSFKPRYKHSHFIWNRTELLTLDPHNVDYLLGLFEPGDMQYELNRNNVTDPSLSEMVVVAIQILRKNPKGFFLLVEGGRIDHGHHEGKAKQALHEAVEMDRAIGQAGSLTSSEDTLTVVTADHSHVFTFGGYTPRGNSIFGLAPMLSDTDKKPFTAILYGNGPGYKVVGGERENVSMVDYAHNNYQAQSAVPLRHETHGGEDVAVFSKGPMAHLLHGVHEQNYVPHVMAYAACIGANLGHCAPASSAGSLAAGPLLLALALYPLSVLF

Structure (SMILES): Cn1c(/N=C/c2cc(Cl)ccc2O)nc2ccccc21
- AC50 [1]: 10.4 µM (active)

Structure (SMILES): CCOC(=O)c1nnn(-c2ccc([N+](=O)[O-])cc2[N+](=O)[O-])c1C
- AC50 [2]: 8.85 µM (active)
- EC50 [3]: 0.647 µM (active)
- EC50 [4]: > 60 µM (not active)

Structure (SMILES): C[C@H]1CCC[C@]2(C)C[C@H]3OC(=O)C(CN4CCCCCC4)[C@H]3C=C12 (stereo not given in full)
- AC50 [2]: 13.9 µM (active)

Structure (SMILES): CC1=NN(c2ccc(C)cc2C)C(=O)C1C(c1ccccc1)C1C(=O)N(c2ccc(C)cc2C)N=C1C (stereo not given)
- AC50 [1]: 16.3 µM (active)
- EC50 (Protein RecA): 0.431 µM (active)
- IC50 (Genome polyprotein): 48.8 µM (active)
- AC50 [5]: 0.523 µM (active)

Structure (SMILES): O=C(NCc1ccc(Cl)cc1)c1cc(-c2cccs2)on1
- IC50 [6]: > 20 µM (inactive)
- IC50 (Estrogen receptor): > 50 µM (not active)

Structure (SMILES): Cc1cc(C)c2c(N)c(C(=O)Nc3ncc(C)s3)sc2n1
- EC50 [7]: < 0.2 µM (active)
- AC50 [2]: 1.09 µM (active)
- AC50 (Paired box protein Pax-8): 2.92 µM (active)
- EC50 (HT-1080): > 50 µM (not active)
- AC50 [8]: 36.7 µM (active)

Structure (SMILES): O=C(CCNS(=O)(=O)c1ccc2[nH]c(=O)oc2c1)Nc1ccccc1
- IC50 [9]: 26.9 µM (active)
- IC50 [10]: 2.4 µM (active)
- IC50 [11]: 17.8 µM (active)

Structure (SMILES): Nc1c(Cl)ncnc1NCc1cccnc1
- AC50 [1]: 5.63 µM (active)
